Experimental data published in article PMC3957892, “Antibiotic Streptolydigin Requires Noncatalytic Mg^2+ for Binding to RNA Polymerase” (Antimicrobial Agents and Chemotherapy, 2014).

Legend:
[1] = test system: RNAP; design: method as in PMID 791108; settings: Stl analog lacking the acetamide group; cited from earlier work
[2] = test system: E. coli RNAP β′N792D; design: method as in PMID 16167380; settings: cited from earlier work
[3] = biological target: T1, Thermus aquaticus RNAP β′H936A/R933A mutant (Thermus aquaticus, UniProt Q9KWU6+Q9KWU7, H1242A/R1239A); assay: GTP incorporation in elongation complex, H936A/R933A mutant RNAP; type: biochemical
T1 construct: made in house
Experimental: (§1) Recombinant wild-type (WT) and mutant Thermus aquaticus core RNAPs were constructed and purified as described previously ([25]).
(§2) Elongation complexes (ECs) were assembled with WT and mutant (H936A/R933A and M932A [E. coli numbering]) RNAPs as described previously ([18]) and placed in transcription buffer containing 40 mM KCl and 20 mM Tris (pH 7.9). Prior to complex assembly, RNA was ^32P labeled at the 5′ end by using [γ-^32P]ATP (PerkinElmer). All reactions were carried out at 40°C. Stl (Sigma) with or without 10 mM MgCl2 was added before the reactions for 10 min at 40°C. Elongation reactions were initiated by addition of 1 mM GTP or 1 mM GTP with 10 mM MgCl2; endonucleolytic cleavage reactions were initiated by the addition of 10 mM MgCl2. Reactions were stopped by the addition of formamide-containing buffer, and products were analyzed as described previously ([18]). Fast kinetics experiments were performed as described previously ([18]). The kinetics data that were described well by a single exponent were fitted into a single-exponent equation using the nonlinear regression procedure in SigmaPlot software. Plots were normalized to the predicted maximum, which was taken as 100. The rates were then fitted in a hyperbolic equation to determine the Ki[Stl]. […]

[4] = biological target: T2, Thermus aquaticus RNAP β′M932A mutant (Thermus aquaticus, UniProt Q9KWU6+Q9KWU7, M1238A); assay: GTP incorporation in elongation complex, M932A mutant RNAP; type: biochemical
T2 construct: made in house
Experimental: as §1, §2

[5] = biological target: T3, WT Thermus aquaticus core RNAP (Thermus aquaticus, UniProt Q9KWU6+Q9KWU7); assay: Intrinsic (endonucleolytic) cleavage / phosphodiester bond hydrolysis in elongation complex EC2, WT RNAP; type: biochemical
T3 construct: made in house
Experimental: as §1, §2

[6] = test system: eukaryotic RNAPs; design: method as in PMID 11124018, PMID 11297923, PMID 11839495; settings: cited from earlier work
[7] = biological target: T3, WT Thermus aquaticus core RNAP; assay: GTP (NMP) incorporation in assembled elongation complex EC1, WT RNAP; type: biochemical; settings: for Ki: 1 mM GTP incorporation, 40°C
Experimental: as §1
Elongation complexes (ECs) were assembled with WT and mutant (H936A/R933A and M932A [E. coli numbering]) RNAPs as described previously ([18]) and placed in transcription buffer containing 40 mM KCl and 20 mM Tris (pH 7.9). Prior to complex assembly, RNA was ^32P labeled at the 5′ end by using [γ-^32P]ATP (PerkinElmer). All reactions were carried out at 40°C. Stl (Sigma) with or without 10 mM MgCl2 was added before the reactions for 10 min at 40°C. Elongation reactions were initiated by addition of 1 mM GTP or 1 mM GTP with 10 mM MgCl2; endonucleolytic cleavage reactions were initiated by the addition of 10 mM MgCl2. Reactions were stopped by the addition of formamide-containing buffer, and products were analyzed as described previously ([18]). Fast kinetics experiments were performed as described previously ([18]). The kinetics data that were described well by a single exponent were fitted into a single-exponent equation using the nonlinear regression procedure in SigmaPlot software. Plots were normalized to the predicted maximum, which was taken as 100. The rates were then fitted in a hyperbolic equation to determine the Ki[Stl]. When the kinetics was described by a double exponent, the predicted maxima of the fast fractions were used for the fit to determine the Stl concentration that inhibited half of the complexes (equivalent of the Ki).
In order to investigate the details of the effects of Stl on RNAP active center functioning, we used artificially assembled elongation complexes (ECs). These complexes are assembled with Thermus aquaticus RNAP, fully complementary synthetic template and nontemplate DNA oligonucleotides, and an RNA oligonucleotide (Fig. 1C and D). […] We analyzed the kinetics of nucleoside monophosphate (NMP) addition in the presence of different concentrations of Stl in the elongation complex EC1, containing a 13-nucleotide-long RNA (Fig. 1C). […]

[8] = Mg^2+ binding to Stl, titration followed by UV absorption spectrum; settings: deduced from titration experiment (Fig. 2A), 20 mM HEPES buffer pH 8.0; read-out: Apparent affinity of Stl for Mg^2+
Experimental: The spectra of Stl were recorded using a UV160U UV-visible (UV-Vis) recording spectrophotometer (Shimadzu Scientific Instruments, Inc.) in a fused silica measuring cell in the presence of the indicated concentrations of the MgCl2 in 20 mM HEPES buffer (pH 8.0).
We attempted to directly visualize if Stl can bind Mg^2+. Stl has a distinct UV absorption spectrum.

[9] = test system: RNAP β′D792G; design: method as in PMID 7592585; settings: cited from earlier work

Row | Compound | Inhibition of RNAP relative to Stl [1] | Effect of β′N792D substitution in E. coli RNAP on sensitivity to Stl [2] | Ki [3] [µM] | Half-inhibitory concentration of Stl for NMP incorporation, times lower than that for WT RNAP ([3]; β′H936A/R933A RNAP vs WT RNAP) [times] | Ki [4] [µM] | Half-inhibitory concentration of Stl for NMP incorporation, times lower than that for WT RNAP ([4]; β′M932A RNAP vs WT RNAP) [times] | Ki [5] [µM] | Concentration of Stl required to inhibit half of the ECs during hydrolysis, times lower than during NTP addition ([5]; WT RNAP, hydrolysis vs NTP addition, −Mg^2+ preincubation) [times] | Inhibition of eukaryotic RNAPs [6] | Ki ([7]; Ki[Stl] (half-inhibitory concentration determined from the proportion of the fast fraction), Stl preincubated −Mg^2+) [µM] | Ki ([7]; Ki[Stl], Stl preincubated +Mg^2+ (10 mM MgCl2)) [µM] | Half-inhibitory concentration of Stl when preincubated with Mg^2+, times lower than when Mg^2+ was added together with NTP ([7]; NMP incorporation) [times] | Kd [8] [µM] | Effect of mutation β′D792G on sensitivity to Stl [9]
1 | tirandamycin | significantly weaker inhibitor than Stl | – | – | – | – | – | – | – | – | – | – | – | – | –
2 | CNC(=O)[C@@H](C)[C@H]1C(=O)/C(=C(O)/C=C/C(C)=C/[C@@H](C)[C@H]2O[C@@]3(C)O[C@H](C=C[C@@]34CO4)[C@@H]2C)C(=O)N1[C@@H]1CC[C@H](O)[C@H](C)O1 [Stl, streptolydigin] | – | significant enhancement of the enzyme sensitivity | 0.816 | 15 to 20 | 0.649 | 15 to 20 | 1.83 | ~8 | does not inhibit | 13.9 | 0.882 | ~15 | ~1000 | strong resistance
